Source: patent US20230203023A1, “SALT AND CRYSTAL FORMS OF GLP-1R AGONISTS AND USES THEREOF” (QILU REGOR THERAPEUTICS INC., priority 2020, published 2023)

Legend:
[1] = Kinetic solubility test in water and bio-relevant media (SGF, FaSSIF, FeSSIF); assay type: physicochemical; conditions: for S: solubility: 37° C.; for Purity (%), area percentage of API: for reference only (suspensions); for FC: form change: residual solids by XRPD; for pH: supernatant
Experimental: (§1) Weigh 100 mg of sodium chloride and 50 mg of Triton X-100 into a 50-mL volumetric flask. Add appropriate volume of purified water and sonicate until all solids are completely dissolved. Add about 68 μL of 12 M HCl and sufficient purified water closely to the target volume and adjust to pH 1.8. Dilute to volume with purified water, mix well and check the pH with a pH meter.
as §1, with “170” for “100”, “phosphate monobasic, 21” for “chloride and 50”, “sodium hydroxide and 310 mg of sodium chloride, 110 mg of SIF powder” for “Triton X-100”, “Add” for “Add about 68 μL of 12 M HCl and”, “6.5.” for “1.8.”
Weigh 0.41 mL of glacial acetic acid, 202 mg of sodium hydroxide and 594 mg of sodium chloride, 560 mg of SIF powder into a 50-mL volumetric flask. Add appropriate volume of purified water to dissolve the solids. Then add sufficient purified water closely to the target volume and adjust to pH 5.0. Dilute to volume with purified water, mix well and check the pH with a pH meter.
Kinetic solubility was evaluated in water and three bio-relevant media (SGF, FaSSIF and FeSSIF) for 1/4/24 hours. 3-4 mg of solids were suspended in 3 mL each medium (solid loading: 1 mg/mL, calculated using freeform) to get a suspension, followed by rolling (25 rpm) at 37° C. for 1/4/24 hours. At each time point, ˜1.0 mL of suspension was sampled out for centrifugation (12000 rpm, 2 min) and filtration through 0.45 μm PTFE membrane to obtain supernatant for HPLC and pH tests, the residual solids were analyzed by XRPD.
Kinetic solubility was evaluated for 1:1 Compound II Citrate Salt (Form A), 1:1 Compound II Tris Salt (Form B), and freeform of Compound II in water and three bio-relevant media (SGF, FaSSIF and FeSSIF) for 1/4/24 hours. 3-4 mg of solids were suspended in 3 mL each medium (solid loading:
1 mg/mL, calculated using freeform) to get a suspension, followed by rolling (25 rpm) at 37° C. for 1/4/24 hours. At each time point, ˜1.0 mL of suspension was sampled out for centrifugation (12000 rpm, 2 min) and filtration through 0.45 μm PTFE membrane to obtain supernatant for HPLC and pH tests, the residual solids were analyzed by XRPD. […] The purity results were for reference only since the samples were all suspensions.

[2] = Solid stability evaluation (I/II), XRPD and HPLC; assay type: physicochemical; conditions: for Observation / Purity (area %): listed as Freeform
Experimental: To evaluate the physical and chemical stability of 1:1 Compound I Tris Salt (Form A) and amorphous free form, samples were stored under the conditions of 60° C. for 1 day and 25° C./60% RH or 40° C./75% RH for 1 week, respectively.
To evaluate the physical and chemical stability of 1:1 Compound II Citrate Salt (Form A), 1:1 Compound II Tris Salt (Form B) and freeform, samples were stored under the conditions of 60° C. for 1 day and 25° C./60% RH or 40° C./75% RH for 1 week, respectively.

[3] = FaSSIF, 1 hour, listed as Freeform
[4] = FaSSIF, 4 hours, listed as Freeform
[5] = FaSSIF, 24 hours, listed as Freeform
[6] = FeSSIF, 1 hour, listed as Freeform
[7] = FeSSIF, 4 hours, listed as Freeform
[8] = FeSSIF, 24 hours, listed as Freeform
[9] = H2O, 1 hour, listed as Freeform
[10] = H2O, 4 hours, listed as Freeform
[11] = H2O, 24 hours, listed as Freeform
[12] = SGF, 1 hour, listed as Freeform
[13] = SGF, 4 hours, listed as Freeform
[14] = SGF, 24 hours, listed as Freeform

S: solubility [1, 3]: 0.02 mg/mL | Purity (%), area percentage of API [1, 3]: 85.92% | S: solubility [1, 4]: 0.02 mg/mL | Purity (%), area percentage of API [1, 4]: 72.84% | S: solubility [1, 5]: 0.02 mg/mL | Purity (%), area percentage of API [1, 5]: 66.76% | S: solubility [1, 6]: 0.03 mg/mL | Purity (%), area percentage of API [1, 6]: 71.16% | S: solubility [1, 7]: 0.02 mg/mL | Purity (%), area percentage of API [1, 7]: 47.29% | S: solubility [1, 8]: 0.04 mg/mL | Purity (%), area percentage of API [1, 8]: 37.65% | S: solubility [1, 9]: 0.03 mg/mL | Purity (%), area percentage of API [1, 9]: 93.84% | S: solubility [1, 10]: 0.03 mg/mL | Purity (%), area percentage of API [1, 10]: 86.44% | S: solubility [1, 11]: 0.04 mg/mL | Purity (%), area percentage of API [1, 11]: 89.76% | S: solubility [1, 12]: 0.2 mg/mL | Purity (%), area percentage of API [1, 12]: 94.17% | S: solubility [1, 13]: 0.2 mg/mL | Purity (%), area percentage of API [1, 13]: 81.32% | S: solubility [1, 14]: 0.1 mg/mL | Purity (%), area percentage of API [1, 14]: 76.04% | FC: form change ([1]; FaSSIF, 1 hour): No | FC: form change [1, 4]: No | FC: form change ([1]; FaSSIF, 24 hours): Yes | FC: form change ([1]; FeSSIF, 1 hour): No | FC: form change ([1]; FeSSIF, 4 hours): Yes | FC: form change [1, 8]: No | FC: form change ([1]; H2O, 1 hour): No | FC: form change [1, 10]: No | FC: form change [1, 11]: No | FC: form change [1, 12]: No | FC: form change ([1]; SGF, 4 hours): Yes | FC: form change ([1]; SGF, 24 hours): Yes | pH [1, 3]: 6.5 | pH [1, 4]: 6.5 | pH [1, 5]: 6.4 | pH [1, 6]: 5.0 | pH [1, 7]: 5.1 | pH [1, 8]: 5.0 | pH [1, 9]: 6.6 | pH [1, 10]: 7.0 | pH [1, 11]: 7.3 | pH ([1]; SGF, 1 hour): 1.9 | pH [1, 13]: 1.9 | pH [1, 14]: 1.8 | Form change ([2]; 25° C./60% RH (open), 1 week): No | Observation ([2]; 25° C./60% RH (open), 1 week): Yellow | Purity (area %) ([2]; 25° C./60% RH (open), 1 week): 94.58 area % | Form change ([2]; 40° C./75% RH (open), 1 week): No | Observation ([2]; 40° C./75% RH (open), 1 week): Yellow | Purity (area %) ([2]; 40° C./75% RH (open), 1 week): 92.86 area % | Form change ([2]; 60° C. (capped), 1 day): No | Observation ([2]; 60° C. (capped), 1 day): Yellow | Purity (area %) ([2]; 60° C. (capped), 1 day): 88.94 area % | Form change ([2]; Initial): No | Observation ([2]; Initial): Yellow | Purity (area %) ([2]; Initial): 95.27 area %
Structure (SMILES): N#Cc1ccc(COc2cccc(C3=CCN(Cc4nc5ccc(C(=O)O)cc5n4C[C@@H]4CCO4)CC3)n2)c(F)c1 [Compound II, (S)-2-((6-((4-cyano-2-fluorobenzyl)oxy)-3′,6′-dihydro-[2,4′-bipyridin]-1′(2′H)-yl)methyl)-1-(oxetan-2-ylmethyl)-1H-benzo[d]imidazole-6-carboxylic acid]
